Here are results for 75 compounds from PubChem BioAssay AID1996.

The term kinetic solubility denotes the concentration staying in solution when a stock, usually in DMSO, is diluted into the medium.

The structures appear in SMILES notation. Converted amounts (≈) assume the structure as drawn.

The conditions of this data set: buffer; pH 7.4; 200.0 µM.
For the compound `Cc1cc(C(=O)Nc2ccc(Br)cn2)sc1C`, the solubility (kinetic) was 2.2 µg/mL (≈ 7.07 µM).
With `COc1ccc(CNC(=O)CSCc2c(F)cccc2Cl)cc1` the figure was 5.5 µg/mL (≈ 15.5 µM); with `Cc1ccc(C)c(NC(=S)N2CCC(NC(=O)c3ccco3)CC2)c1`, 45.4 µg/mL (≈ 127 µM).
With `CCN(Cc1nc(-c2ccc(Cl)cc2)no1)CC1CCCO1` (stereo not given) the figure was 25.8 µg/mL (≈ 80.2 µM).
`COc1ccc(/C=N/NC(=O)c2ccccc2O)cc1COc1ccccn1` displayed a kinetic solubility greater than 56.6 µg/mL.
With `Cc1ccc(CONC(=O)c2ccc(C)cc2)cc1` the figure was 20.2 µg/mL (≈ 79.1 µM).
For `CC1CCCCC1NC1CCN(C)CC1` (stereo not given), the kinetic solubility was greater than 31.6 µg/mL.
With `O=C(Nc1nc2ccccc2s1)c1ccc(F)cc1` the figure was 0.6 µg/mL (≈ 2.2 µM).
Compound `O=C(CCCn1c(=O)oc2ccccc21)Nc1ccccc1` registered a solubility (kinetic) of 42.2 µg/mL (≈ 142 µM).
In turn, `O=C(Nc1cccc2cccnc12)c1ccc(Cl)cc1Cl` returned a kinetic solubility of less than 0.3 µg/mL.
In the case of `COc1ccc(CCN)cc1OC`, the kinetic solubility amounted to 24.8 µg/mL (≈ 137 µM).
With `N#Cc1c(-c2cccnc2)cc(-c2ccccc2)nc1N` the figure was 2.4 µg/mL (≈ 8.81 µM); with `O=C1CCC([N+](=O)[O-])C(c2ccccc2F)N1` (stereo not given), greater than 35.7 µg/mL.
With `O=C(Nc1cccc2c1CCCC2)c1ccc(F)cc1` the figure was 2.2 µg/mL (≈ 8.17 µM); with `O=C(CCNc1ccccc1)c1cccc([N+](=O)[O-])c1`, 32.7 µg/mL (≈ 121 µM); with `Cc1ccc(S(=O)(=O)c2nc(-c3ccccc3Cl)oc2N2CCN(C)CC2)cc1`, 25.2 µg/mL (≈ 58.3 µM).
With `Cc1ccccc1OCC(=O)OCC(=O)NCc1ccc2c(c1)OCO2`, the kinetic solubility came out at 17.3 µg/mL (≈ 48.4 µM).
On to `Cn1c(N)c(C(=O)COC(=O)/C=C/c2ccccc2)c(=O)n(C)c1=O`, for which the solubility (kinetic) is 11.6 µg/mL (≈ 33.8 µM).
With `CN(CC(=O)Nc1cccc(F)c1)CC(=O)Nc1cccc2ccccc12` the figure was 15.4 µg/mL (≈ 42.1 µM); with `Nc1nc(-c2ccc(F)cc2)cs1`, greater than 29.1 µg/mL; with `O=C(COC(=O)C1=COCCO1)Nc1cc(C(F)(F)F)ccc1Cl`, 12.4 µg/mL (≈ 33.9 µM).
With `O=[N+]([O-])c1ccccc1S(=O)(=O)N1CCCc2ccccc21` the figure was 10.9 µg/mL (≈ 34.2 µM); with `COC(=O)c1ccc(/C=C/C(=O)OCC(=O)NCc2cccs2)cc1`, 27.4 µg/mL (≈ 76.2 µM).
`O=C(COC(=O)c1cncc(Br)c1)NC1CCCCC1` yielded a kinetic solubility of 46.6 µg/mL (≈ 137 µM).
`Cc1cc(Br)ccc1OCCN1CCCC1.O=C(O)C(=O)O` registered a solubility (kinetic) greater than 56.1 µg/mL.
For the compound `CCC(=O)N1c2ccccc2C(N(C(=O)CC)c2ccccc2)CC1C` (stereo not given), the kinetic solubility was greater than 52.6 µg/mL.
`CNC(=O)c1ncoc1-c1ccc(Cl)cc1` yielded a kinetic solubility of 33.8 µg/mL (≈ 143 µM).
With `COC(=O)c1c(C)oc(C)c1S(=O)(=O)Nc1ccc(C(C)C)cc1` the figure was 7.2 µg/mL (≈ 20.5 µM).
With `CCCn1c(C)c(C(=O)OCC)c(O)c(-c2ccccc2)c1=O` the figure was greater than 47.3 µg/mL.
As for `Cc1ccc(CC(=O)N2CCN(C)CC2)cc1`, the kinetic solubility is greater than 34.8 µg/mL.
Consider `CC1CN(C(=S)Nc2ccccc2F)CC(C)O1` (stereo not given), for which the kinetic solubility is greater than 40.3 µg/mL.
Consider `CC1(C)NC(=O)N(CC(=O)OCC(=O)c2ccc(Cl)s2)C1=O`, for which the kinetic solubility was greater than 51.7 µg/mL.
With `CCOC(=O)c1c(O)c2ccccc2n(C)c1=O`, the kinetic solubility was greater than 37.1 µg/mL.
As to `O=[N+]([O-])c1cccc(CNC2CCCCCC2)c1`, the kinetic solubility came out at 24.6 µg/mL (≈ 99.1 µM).
With `C=CCNC(=O)c1ccccc1SCc1c(C)noc1C` the figure was greater than 45.4 µg/mL; with `COc1cccc(/C=C/c2ccc3cccc(O)c3n2)c1`, 0.7 µg/mL (≈ 2.52 µM); with `O=C(CSc1ccccc1C(=O)O)Nc1ccc2c(c1)OCO2`, greater than 49.7 µg/mL.
As to `O=C1/C(=C/c2ccncc2)N=C2CCCCCN12`, the kinetic solubility came to 33.9 µg/mL (≈ 140 µM).
With `CN=C(NC1CCCCC1)c1ccc([N+](=O)[O-])cc1` the figure was greater than 39.2 µg/mL; with `CCCCn1cnc2c(oc3ccccc32)c1=O`, greater than 36.3 µg/mL.
`CC(=O)Nc1ccc(NC(=O)COC(=O)C2CCCCC2)cc1` returned a solubility (kinetic) greater than 47.8 µg/mL.
With `Cc1cc(NC(=O)COC(=O)CNS(=O)(=O)c2c(F)cc(F)cc2Br)no1` the figure was greater than 70.2 µg/mL.
With `NC(=O)COC(=O)c1ccccc1OCc1ccccc1` the figure was greater than 42.8 µg/mL.
`NS(=O)(=O)c1ccc(NC(=O)C2C3C=CC(C3)C2C(=O)O)cc1` (stereo not given) returned a solubility (kinetic) greater than 50.5 µg/mL.
In turn, `C=C(C)c1cccc(C(C)(C)NC(=O)NCc2ccncc2)c1` came in with a solubility (kinetic) greater than 46.4 µg/mL.
With `COc1ccccc1CNC(=O)CCc1cn(C)c2ccccc12` the figure was 39.2 µg/mL (≈ 122 µM).
In turn, `Cc1ccc2c(c1)C1CN(C)CCC1N2C(=S)Nc1ccc(OC(F)F)cc1` (stereo not given) registered a kinetic solubility of 44.8 µg/mL (≈ 111 µM).
With `O=C(c1cc2cc(Br)ccc2s1)N1CCOCC1` the figure was 45.8 µg/mL (≈ 140 µM); with `COc1ccc(CC(=O)NCC(=O)NC(Cc2ccccc2)C(=O)O)cc1` (stereo not given), greater than 55.6 µg/mL.
With `COc1ccc(C(=O)NCC(=O)OCCOc2ccc(Cl)cc2)cc1OC` the figure was 13.6 µg/mL (≈ 34.5 µM); with `CCCc1ncc(C(O)c2cccc(OC)c2)n1C` (stereo not given), greater than 39.1 µg/mL; with `Cc1nn(C)cc1S(=O)(=O)Nc1ncccn1`, greater than 38 µg/mL.
With `Cc1cc(C)c(OCC(=O)N2CC=C(c3ccccc3)CC2)c(C)c1` the figure was 13 µg/mL (≈ 38.8 µM).
For the compound `O=c1[nH]c(O)c(C=Nc2cccc(F)c2)c(=O)[nH]1`, the solubility (kinetic) was 4.8 µg/mL (≈ 19.3 µM).
With `C=CCNC(=O)COc1cc(C)cc(C)c1C` the figure was 30.8 µg/mL (≈ 132 µM); with `O=C(c1ccc(Cl)cc1)N1CCCCC(Cl)C1=O` (stereo not given), 6.9 µg/mL (≈ 24.1 µM); with `COC(=O)c1sccc1NC(=O)c1ccccc1F`, 1 µg/mL (≈ 3.58 µM).
With `COc1ccc(CCNC(=O)COc2ccc3c(C)cc(=O)oc3c2)cc1` the figure was 6 µg/mL (≈ 16.3 µM).
With `C=CCn1c(Oc2ccccc2F)nc2c1c(=O)n(C)c(=O)n2C` the figure was greater than 49.5 µg/mL; with `Cc1cc([N+](=O)[O-])ccc1NC(=O)c1csc(C)c1C`, 1.1 µg/mL (≈ 3.79 µM); with `CCc1nc2ccccc2c(C(=O)Nc2ccc(C)cc2)c1C`, less than 0.3 µg/mL.
`CCOC(=O)CNC(=O)CSc1nc(-c2cccc(C)c2)ns1` registered a solubility (kinetic) of 40.9 µg/mL (≈ 116 µM).
With `Cc1ccc2nc(Nc3ccccc3)cc(C)c2c1` the figure was 3.9 µg/mL (≈ 15.7 µM).
`COc1cc(C(=O)Nc2ccc(C)cc2)c2ccccc2n1`: the solubility (kinetic) was less than 0.3 µg/mL.
As to `COc1ccc(C(=O)NCC(=O)OCc2ccccc2F)cc1`, the solubility (kinetic) was 47.6 µg/mL (≈ 150 µM).
Compound `CCc1cc(S(N)(=O)=O)cc(CC)c1NC(C)=O` yielded a solubility (kinetic) of 38.4 µg/mL (≈ 142 µM).
With `CCCCn1c(=O)[nH]c(=O)c2c1nc(-c1cccc(OC)c1)n2C` the figure was 3.1 µg/mL (≈ 9.44 µM); with `CS(=O)(=O)N1CCC(C(=O)Nc2ccc(F)cc2)CC1`, greater than 45.1 µg/mL.
With `CCOn1c(=O)c(-c2ccc(Br)cc2)[n+]([O-])c2ccccc21` the figure was 1.3 µg/mL (≈ 3.6 µM); with `COc1ccc(-c2nc3ccccn3c2Cl)cc1`, 4.4 µg/mL (≈ 17 µM); with `Cc1ccc(NC2CC(=O)N(c3cccc([N+](=O)[O-])c3)C2=O)cc1` (stereo not given), 39 µg/mL (≈ 120 µM).
With `Cc1ccc2ncnc(Oc3ncccc3NC(=O)C(C)(C)C)c2c1` the figure was greater than 50.5 µg/mL; with `Cl.O=S(=O)(c1ccc(F)cc1)N1CCCNCC1`, greater than 44.2 µg/mL; with `CCC(=O)N(Cc1cc(=O)[nH]c2ccccc12)c1ccc(C)cc1C`, 43.9 µg/mL (≈ 131 µM).
Compound `Cc1ccc(CNC(=O)Nc2ccccc2)n1C` had a solubility (kinetic) of 31.6 µg/mL (≈ 130 µM).
